Measurements as given in article PMC12186844 (ACS Chemical Neuroscience, 2025).
Where two headings read alike, the source gives them in different places.

Columns and labels:
SNAP-D2SR I73^2.43A = SNAP-D2SR I73^2.43A (Homo sapiens, UniProt P14416, I73A); test: functional cAMP assay, BRET biosensor; format: cell-based; design: expressed in transfected cells
Description: (§1) Flp-In-CHO cells stably coexpressing the CAMYEL biosensor and DRs were plated into white 96-well CulturPlates (Revvity) and grown overnight. The cells were equilibrated in Hank’s balanced salt solution (HBSS) at 37 °C (or 25 °C when indicated) before starting the experiment. The cells were costimulated with the agonists and 10 μM forskolin for the indicated time frames when the BRET readings were captured. Coelenterazine (Nanolight Technology, AZ) was added at a final concentration of 5 μM at least 3 min prior to measurement. […] Net BRET was determined by subtraction of the vehicle control coadded with 10 μM forskolin.
(§2) Dose–response curves were fitted using the following three-parameter equation: response=bottom+top−bottom/1+10^(logEC50−log[A]) 5 where top and bottom represent the maximal and minimal asymptote of the dose response curve, [A] is the molar concentration of the agonist, and EC50 is the molar concentration of the agonist required to give a response half-way between bottom and top.

SNAP-D2SR I128^3.46A [1] = target: T1, SNAP-D2SR I128^3.46A (Homo sapiens, UniProt P14416, I128A); test: functional cAMP assay, BRET biosensor; format: cell-based
T1 sequence (P14416 1-414 isoform P14416-2 I128A): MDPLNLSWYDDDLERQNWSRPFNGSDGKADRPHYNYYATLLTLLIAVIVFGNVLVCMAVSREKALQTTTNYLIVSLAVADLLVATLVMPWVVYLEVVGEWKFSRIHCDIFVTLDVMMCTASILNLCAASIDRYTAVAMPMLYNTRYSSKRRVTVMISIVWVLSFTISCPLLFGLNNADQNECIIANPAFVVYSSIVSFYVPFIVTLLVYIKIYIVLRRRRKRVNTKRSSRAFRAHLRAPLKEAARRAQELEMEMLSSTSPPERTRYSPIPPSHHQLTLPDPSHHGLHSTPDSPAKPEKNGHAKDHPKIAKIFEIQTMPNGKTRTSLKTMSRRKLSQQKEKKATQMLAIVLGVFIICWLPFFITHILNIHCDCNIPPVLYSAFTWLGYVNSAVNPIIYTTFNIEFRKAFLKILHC
Description: as §1, §2

SNAP-D2SR F408^8.54A = SNAP-D2SR F408^8.54A (Homo sapiens, UniProt P14416, F437A); test: cell membrane [3H]spiperone assay
Chain of SNAP-D2SR F408^8.54A (P14416 1-414 isoform P14416-2 F408A): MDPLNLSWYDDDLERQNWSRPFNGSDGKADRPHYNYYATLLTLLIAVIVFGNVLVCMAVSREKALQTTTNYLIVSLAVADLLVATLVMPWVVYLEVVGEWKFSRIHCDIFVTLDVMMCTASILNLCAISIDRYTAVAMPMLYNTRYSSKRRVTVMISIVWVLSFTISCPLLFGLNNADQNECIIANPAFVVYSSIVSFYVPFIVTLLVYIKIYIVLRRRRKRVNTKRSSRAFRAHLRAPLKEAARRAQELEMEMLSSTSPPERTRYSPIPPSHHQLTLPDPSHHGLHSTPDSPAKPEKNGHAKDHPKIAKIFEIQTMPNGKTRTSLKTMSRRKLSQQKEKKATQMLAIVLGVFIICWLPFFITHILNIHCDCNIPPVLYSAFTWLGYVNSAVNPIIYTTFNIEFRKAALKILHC
Description: (§3) Flp-In-CHO cells stably expressing the wild-type or mutant DRs were grown to 90% confluence in 175 cm^2 cell culture flasks. The cells were harvested in PBS containing 2 mM EDTA and centrifuged at 300g for 3 min. The resulting pellet was resuspended in ice-cold assay buffer (20 mM HEPES, 100 mM NaCl, 6 mM MgCl2, 1 mM EGTA, and 1 mM EDTA, pH 7.4), and the centrifugation step was repeated. The intact cell pellet was then resuspended in assay buffer and homogenized using a Polytron homogenizer. After centrifugation (1000g, 10 min), the pellet was discarded, and the supernatant was recentrifuged at 30,000g for 1 h at 4 °C using a Sorvall Evolution RC ultracentrifuge (Thermo Scientific). The resulting pellet was resuspended in assay buffer and stored in 250 μL aliquots at −80 °C. Membrane protein concentration was determined using a Pierce’s BCA protein assay kit (Thermo Fisher, Melbourne).
(§4) [^3H]­Spiperone binding experiments using cell membranes were conducted in a 200 μL reaction volume in assay buffer (20 mM HEPES, 100 mM NaCl, 6 mM MgCl2, 1 mM EGTA, and 1 mM EDTA, pH 7.4) containing 100 μM GppNHp and 0.1% ascorbic acid in 96-well plates. […] In all cases, nonspecific binding was determined in the presence of 10 μM haloperidol. […] Filter bound radioactivity was detected as a chemiluminescence after the addition of MicroScint-20 (Revvity) in a MicroBeta plate counter (Revvity). […]

D2LR [2] = target: T2, D2LR (Homo sapiens, UniProt P14416); test: ERK1/2 phosphorylation assay; format: cell-based; conditions: pERK1/2
T2 sequence (P14416 whole entry, the tested form may be a part): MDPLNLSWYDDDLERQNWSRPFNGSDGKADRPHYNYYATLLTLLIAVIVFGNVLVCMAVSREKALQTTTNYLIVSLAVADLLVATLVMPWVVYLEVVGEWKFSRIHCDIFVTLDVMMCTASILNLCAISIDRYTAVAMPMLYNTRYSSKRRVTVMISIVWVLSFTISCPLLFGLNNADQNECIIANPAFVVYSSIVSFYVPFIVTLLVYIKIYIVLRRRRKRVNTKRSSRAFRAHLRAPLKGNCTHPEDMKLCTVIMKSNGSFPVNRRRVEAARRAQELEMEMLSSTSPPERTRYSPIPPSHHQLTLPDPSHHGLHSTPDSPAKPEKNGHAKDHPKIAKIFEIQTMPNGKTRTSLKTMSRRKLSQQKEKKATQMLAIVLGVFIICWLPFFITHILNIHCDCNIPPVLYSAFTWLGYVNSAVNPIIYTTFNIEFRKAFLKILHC
Description: Flp-In-CHO cells stably expressing the D2LR were seeded into 96-well plates at a density of 50,000 cells/well. After 5 h, cells were washed with phosphate-buffered saline (PBS) and incubated in serum-free DMEM overnight before assaying. […] Stimulation of the cells was terminated by removing the medium followed by the addition of 100 μL of SureFire lysis buffer (PerkinElmer) to each well. The plate was shaken for 5 min at RT before 5 μL of the lysates was transferred to a white 384-well ProxiPlate (PerkinElmer). Then, 8 μL of a 240:1440:7:7 mixture of Surefire activation buffer:Surefire reaction buffer:AlphaScreen acceptor beads:AlphaScreen donor beads was added to the samples and incubated in the dark at 37 °C for 1.5 h. Plates were read using a Fusion plate reader.

SNAP-D2SR F50^1.48A = SNAP-D2SR F50^1.48A (Homo sapiens, UniProt P14416, F50A); test: cell membrane [3H]spiperone assay
Chain of SNAP-D2SR F50^1.48A (P14416 1-414 isoform P14416-2 F50A): as the sequence (P14416 1-414 isoform P14416-2 F408A) above, with F50A, A408F counted along it
Description: as §3
[^3H]­Spiperone binding experiments using cell membranes were conducted in a 200 μL reaction volume in assay buffer (20 mM HEPES, 100 mM NaCl, 6 mM MgCl2, 1 mM EGTA, and 1 mM EDTA, pH 7.4) containing 100 μM GppNHp and 0.1% ascorbic acid in 96-well plates. […] In all cases, nonspecific binding was determined in the presence of 10 μM haloperidol. To obtain affinity estimates of unlabeled agonists, competition binding experiments were performed at equilibrium. […] After this incubation period, bound and free radioligands were separated by fast-flow filtration through UniFilter-96 GF/B plates using a MicroBeta FilterMate harvester (Revvity) followed by three washes with ice-cold 0.9% NaCl. Filter bound radioactivity was detected as a chemiluminescence after the addition of MicroScint-20 (Revvity) in a MicroBeta plate counter (Revvity).
IC50 values obtained from the inhibition curves were converted to Ki values using the Cheng and Prusoff equation.

D2LR [3] = target: T2, D2LR; test: inhibition of forskolin-stimulated cAMP production, BRET biosensor; format: cell-based;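 note: Flp-In-CHO cells stably expressing CAMYEL cAMP BRET sensor, agonist plus 10 µM forskolin, net BRET after forskolin-vehicle subtraction, parameters from complete operational model of allosterism and agonism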
Description: as §1, §2

SNAP-D2SR WT = SNAP-D2SR WT (Homo sapiens, UniProt P14416); test: functional cAMP assay, BRET biosensor; format: cell-based
Chain of SNAP-D2SR WT (P14416 1-414 isoform P14416-2): as the sequence (P14416 1-414 isoform P14416-2 F408A) above, with A408F counted along it
Description: as §1, §2

SNAP-D2SR G51^1.49A = SNAP-D2SR G51^1.49A (Homo sapiens, UniProt P14416, G51A); test: cell membrane [3H]spiperone assay
Chain of SNAP-D2SR G51^1.49A (P14416 1-414 isoform P14416-2 G51A): as the sequence (P14416 1-414 isoform P14416-2 F408A) above, with G51A, A408F counted along it
Description: as §3, §4

SNAP-D2SR F353^6.44A = SNAP-D2SR F353^6.44A (Homo sapiens, UniProt P14416, F382A); test: functional cAMP assay, BRET biosensor; format: cell-based
Chain of SNAP-D2SR F353^6.44A (P14416 1-414 isoform P14416-2 F353A): as the sequence (P14416 1-414 isoform P14416-2 F408A) above, with F353A, A408F counted along it
Description: as §1, §2

SNAP-D2SR I128^3.46A [4] = target: T1, SNAP-D2SR I128^3.46A; test: cell membrane [3H]spiperone assay
Description: as §3, §4

[5] = read-out: D2 PAM2 KB (converted)
[6] = with S-(3)-PPP, listed as D2 PAM

Chain of SNAP-D2SR I73^2.43A (P14416 1-414 isoform P14416-2 I73A): as the sequence (P14416 1-414 isoform P14416-2 F408A) above, with I73A, A408F counted along it

With COc1cc(CO)c(F)cc1C(=O)n1ccc2c(F)cccc21 [D2 PAM2, [5-fluoro-4-(hydroxymethyl)-2-methoxyphenyl]-(4-fluoro-1H-indol-1-yl)methanone] the “D2 PAM2 log τ” value (SNAP-D2SR I73^2.43A) was “–1.11 ± 0.16”, the “D2 PAM2 pKB” value (SNAP-D2SR I73^2.43A) was 5.24 ± 0.16 and the “D2 PAM2 τ” value (SNAP-D2SR I73^2.43A) was 0.08. The “fold decrease in cooperativity with DA” value (SNAP-D2SR I73^2.43A; cAMP) was 2.8 fold, the Kb (SNAP-D2SR I73^2.43A; [5]) was 6 µM and the “D2 PAM2 log αβ” value (SNAP-D2SR I73^2.43A; with DA) was 0.79 ± 0.07. The “D2 PAM2 αβ” value (SNAP-D2SR I73^2.43A; with DA) was 6.1, the “D2 PAM2 log τ” value (SNAP-D2SR I128^3.46A [1]) was “–3” and the “D2 PAM2 pKB” value (SNAP-D2SR I128^3.46A [1]) was 4.90 ± 0.18. The Kb (SNAP-D2SR I128^3.46A [1]; [5]) was 13 µM, the “D2 PAM2 log αβ” value (SNAP-D2SR I128^3.46A [1]; with DA) was 1.63 ± 0.17 and the “D2 PAM2 αβ” value (SNAP-D2SR I128^3.46A [1]; with DA) was 43. The “fold shift + 10 μM PAM” value (SNAP-D2SR F408^8.54A; shift of DA IC50) was 0.85 fold, the “ΔpIC50 + 10 μM PAM” value (SNAP-D2SR F408^8.54A; shift of DA pIC50) was “–0.07 ± 0.14” and the pKB (D2LR [2]) was 5.36 ± 0.13. It also gave a LogτB (D2LR [2]; intrinsic efficacy) of 0.18 ± 0.03, a Logαβ (D2LR [2]; with dopamine) of 1.37 ± 0.12 and a pKB (SNAP-D2SR F50^1.48A; [3H]spiperone competition binding interaction experiment) of 5.57 ± 0.25. The “fold decrease in cooperativity with DA vs WT” value (SNAP-D2SR F50^1.48A; binding) was 5 fold, the Kb (SNAP-D2SR F50^1.48A; binding interaction experiment) was 3 µM and the “log α” value (SNAP-D2SR F50^1.48A; cooperativity with DA, binding) was 0.33 ± 0.03. For the same compound, the α (SNAP-D2SR F50^1.48A; cooperativity with DA, binding) was 2.1, the “fold shift + 10 μM PAM” value (SNAP-D2SR F50^1.48A; shift of DA IC50) was 1.7 fold and the “ΔpIC50 + 10 μM PAM” value (SNAP-D2SR F50^1.48A; shift of DA pIC50) was 0.22 ± 0.12. For the same compound, the “agonism, fold lower than that of aripiprazole” value (D2LR [3]; D2 PAM2 alone, high D2R expression levels) was “approximately 2 fold”, the pKB (D2LR [3]; cAMP) was 5.37 ± 0.04 and the LogτB (D2LR [3]; cAMP, intrinsic efficacy) was -0.96 ± 0.04. The Logαβ (D2LR [3]; cAMP, with dopamine) was 1.41 ± 0.04, the Kb (D2LR [3]; operational model of allostery, with DA) was 5.5 µM and the Logαβ (D2LR [3]; with S-(3)-PPP) was 1.46 ± 0.16. The Logβ (D2LR [3]; with S-(3)-PPP) was 1.06, the β (D2LR [3]; with S-(3)-PPP) was 11.5 and the αβ (D2LR [3]; [6]) was 28. It also gave a β (D2LR [3]; [6]) of 11, a Logαβ (D2LR [3]; with apomorphine) of 1.21 ± 0.13 and a Logβ (D2LR [3]; with apomorphine) of 0.16. For the same compound, the αβ (D2LR [3]; with apomorphine) was 16, the β (D2LR [3]; with apomorphine) was 1.4 and the Logαβ (D2LR [3]; with aripiprazole) was 1.61 ± 0.14. The Logβ (D2LR [3]; with aripiprazole) was 1.18, the αβ (D2LR [3]; with aripiprazole) was 41 and the β (D2LR [3]; with aripiprazole) was 15. It also gave a Logαβ (D2LR [3]; with bromocriptine) of 0.76 ± 0.13, a Logβ (D2LR [3]; with bromocriptine) of 0.49 and a αβ (D2LR [3]; with bromocriptine) of 5.8. For the same compound, the β (D2LR [3]; with bromocriptine) was 3.1, the Logαβ (D2LR [3]; with dopamine) was 1.35 ± 0.10 and the Logβ (D2LR [3]; with dopamine) was 0.02. The αβ (D2LR [3]; with dopamine) was 22, the β (D2LR [3]; with dopamine) was 1 and the β (D2LR [3]; with dopamine, listed as D2 PAM) was 1.0. It also gave a Logαβ (D2LR [3]; with lisuride) of 0.66 ± 0.06, a Logβ (D2LR [3]; with lisuride) of 0.11 and a αβ (D2LR [3]; with lisuride) of 4.6. It also gave a β (D2LR [3]; with lisuride) of 1.3, a Logαβ (D2LR [3]; with pergolide) of 1.50 ± 0.15 and a Logβ (D2LR [3]; with pergolide) of 0.26. It also gave a αβ (D2LR [3]; with pergolide) of 32, a β (D2LR [3]; with pergolide) of 1.8 and a Logαβ (D2LR [3]; with pramipexole) of 1.37 ± 0.12. For the same compound, the Logβ (D2LR [3]; with pramipexole) was 0.16, the αβ (D2LR [3]; with pramipexole) was 23 and the β (D2LR [3]; with pramipexole) was 1.4. It also gave a Logαβ (D2LR [3]; with ropirinole) of 1.67 ± 0.12, a Logβ (D2LR [3]; with ropirinole) of 0.53 and a αβ (D2LR [3]; with ropirinole) of 47. For the same compound, the β (D2LR [3]; with ropirinole) was 3.4, the Logαβ (D2LR [3]; with rotigotine) was 1.17 ± 0.09 and the Logβ (D2LR [3]; with rotigotine) was -0.20. The αβ (D2LR [3]; with rotigotine) was 15, the β (D2LR [3]; with rotigotine) was 0.6 and the “D2 PAM2 log τ” value (SNAP-D2SR WT) was 0.06 ± 0.05. The “D2 PAM2 pKB” value (SNAP-D2SR WT) was 5.02 ± 0.14, the “D2 PAM2 τ” value (SNAP-D2SR WT) was 1 and the Logτ (SNAP-D2SR WT; S13) was 0.14 ± 0.10. For the same compound, the pKB (SNAP-D2SR WT; S13) was 4.93 ± 0.22, the τ (SNAP-D2SR WT; S13) was 1.38 and the Kb (SNAP-D2SR WT; S13, read-out: KB) was 11.7 µM. The Logαβ (SNAP-D2SR WT; S13, with DA) was 1.60 ± 0.25, the αβ (SNAP-D2SR WT; S13, with DA) was 39.8 and the Kb (SNAP-D2SR WT; Table 2, read-out: D2 PAM2 KB (converted)) was 9.5 µM. For the same compound, the “D2 PAM2 log αβ” value (SNAP-D2SR WT; with DA) was 1.25 ± 0.14, the “D2 PAM2 αβ” value (SNAP-D2SR WT; with DA) was 18 and the “fold shift + 10 μM PAM” value (SNAP-D2SR G51^1.49A; shift of DA IC50) was 0.8 fold. For the same compound, the “ΔpIC50 + 10 μM PAM” value (SNAP-D2SR G51^1.49A; shift of DA pIC50) was “–0.08 ± 0.17”, the “D2 PAM2 log τ” value (SNAP-D2SR F353^6.44A) was “–1.06 ± 0.21” and the “D2 PAM2 pKB” value (SNAP-D2SR F353^6.44A) was 5.13 ± 0.16. For the same compound, the “D2 PAM2 τ” value (SNAP-D2SR F353^6.44A) was 0.09, the Kb (SNAP-D2SR F353^6.44A; [5]) was 7.4 µM and the “D2 PAM2 log αβ” value (SNAP-D2SR F353^6.44A; with DA) was 1.06 ± 0.21. The “D2 PAM2 αβ” value (SNAP-D2SR F353^6.44A; with DA) was 11, the “fold shift + 10 μM PAM” value (SNAP-D2SR I128^3.46A [4]; shift of DA IC50) was 1.1 fold and the “ΔpIC50 + 10 μM PAM” value (SNAP-D2SR I128^3.46A [4]; shift of DA pIC50) was 0.06 ± 0.13.
